# Source: patent US6328728A, “Composition and method for enhancing electrotransport agent delivery” (Alza Corporation, priority 1997, dated 2001)
# Where two headings read alike, the source gives them in different places.
# Assay type: in vivo, male hairless guinea pigs
# Conditions: for average plasma calcitonin concentration (given in flux units): second hour/steady state
# Description: This study was undertaken to assess the effect on the transdermal delivery rate by electrotransport of an agent such as calcitonin (sCT), a protein with an affinity for the surfactant Tween 20 at pH 6.5, by delivering the agent in the presence of Tween 20 from a donor gel.
# A customized electrotransport system, and its reservoir matrices and contents were prepared as described below. A low level current of 100 μA cm^-2 was maintained throughout each test by a self contained power module (ALZA Corp., Palo Alto, Calif., Code #84166). The peptide agent salmon calcitonin (sCT, UCB-Bioproducts S.A., Chemin du Foriest, Allend, Belgium) was chosen for delivery by electrotransport. The protein calcitonin has a positive net charge at pH 6.5 and was therefore anodically driven from the positive electrode toward the negative electrode. Three gels were prepared for use with the electrotransport system. The anode gel provided the proper environment for the anodic electrochemical reaction. It was comprised of Bio-Rad resin beads (100-200 mesh, chloride form, Bio-Rad Laboratories, Richmond, Calif.) in 48 mM histidine buffer, pH 6.5, and 0.5% hydroxyethyl cellulose (HEC). The cathode gel provided the proper environment for the cathodic electrochemical reaction and completed the electrical circuit. It was comprised of an L-histidine buffered HEC gel, pH 2.9, and sodium chloride. The donor gel occupied a surface area of 2 cm^2 and was separated from the anode compartment by a 1 Kdalton molecular weight (MW) cut-off membrane (Millipore Corp., Bedford, Mass.). The donor gel was prepared by first mixing 48 mM histidine buffer, pH 6.5, with HEC, vortexing vigorously to completely dissolve the HEC and to ensure homogeneous polymerization of the gel. After a few minutes, either a 10% solution of Tween 20 (Pierce, Rockford, Ill.) or water was added in conjunction with a stock solution of calcitonin and gently mixed into the gel. The amounts of each component were calculated to produce a nominal concentration of 1 mM sCT in a 1% HEC gel of 1 mL volume (with or without Tween 20). The gel was slowly rotated and allowed to equilibrate overnight at 4° C. An aliquot of 275-295 μL of donor gel was weighed and placed in the donor reservoir of the electrotransport system immediately prior to beginning each experiment. The 3 gels were contained in 2 separate structures, with each gel compartment being a punched double-sided adhesive foam ring 0.081 cm (0.032") thick with an outside diameter of 3.2 cm (11/4") and an inside diameter of 1.6 cm (5/8"). The compartment ring containing the cathode gel was open on the skin side. The back side was covered by an electrode sandwich consisting of a 3.2 cm (11/4") diameter release liner cover, a 2.2 cm (13/15") diameter punch of electrical conducting adhesive tape, a 11 cm (41/2") silver wire that was slightly coiled at one end, with the coil placed at the center of the electrode leading out, and a 1.6 cm (5/8") diameter punch of AgCl PIB electrode film. The donor gel compartment was also open on the skin side, but the back side was covered by a 2.2 cm (13/15") diameter punch of a 1,000 Dalton MW cut-off membrane. The anode compartment was then stacked on top of the donor compartment and covered with an electrode sandwich identical to the cathode, except that the AgCl PIB electrode film was replaced with a 0.025 mm thick silver (Ag) foil (Johnson Mathey Catalog Co., Ward Hill, Mass.). Both the cathode and the donor compartments also included adhesive washers (In Vivo Metric, Healdsberg, Calif.) with an outside diameter of 3.2 cm (11/4") and an inside diameter of 1.6 cm (5/8") between the skin and the bottom of the compartment to improve skin adhesion. All components of the system were punched out in advance and assembled on the day of the experiment. […]
substance,measurement,setting,value
Salmon Calcitonin [reference compound],time to approach steady state calcitonin levels,active current groups (1) and (2),By the second hour
same,average plasma calcitonin concentration (given in flux units),"active electrotransport 100 μA cm^-2, 1 mM sCT gel pH 6.5, with Tween 20 (group 1)",5.4 μg sCT cm^-2 h^-1
same,average plasma calcitonin concentration (given in flux units),"active electrotransport 100 μA cm^-2, 1 mM sCT gel pH 6.5, without Tween 20 (group 2)",1.2 μg sCT cm^-2 h^-1
same,"calcitonin plasma concentration, time course","active electrotransport groups (1) and (2), first hour",increased rapidly
same,average plasma calcitonin concentration with Tween 20 relative to without Tween 20,"active electrotransport, group 1 vs. group 2, second hour",3 fold
same,"calcitonin plasma profiles, group (1) with Tween 20 vs group (2) without (statistical comparison)","active electrotransport, p<0.05, ANOVA",significantly different from one another
same,"calcitonin plasma levels, passive systems","passive delivery (control group 3, with and without Tween 20), first 4 hrs.",continued to lack significant calcitonin plasma levels
same,"calcitonin plasma levels, passive systems","passive delivery (no current), first hour",low and remained at or slightly above the limit of detection
